Measurements reported in the supplement of paper PMC8612539.
Values after ≈ are worked out from the molar mass of the structure shown.

System: Mannheimia haemolytica
Test: minimum inhibitory concentration (MIC)
Protocol: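 Broth microdilution MIC (Sensititre BOPO7F bovine plate, CLSI methods) of 19 antimicrobials against field isolates of P. multocida, M. haemolytica, H. somni (deep nasopharyngeal swabs) and E. coli, Enterococcus spp. (rectal swabs) from weaned dairy heifers. Incubation 16-24 h at 35 C. MIC is the lowest concentration preventing visible growth. Values with <= or > lie at the tested range limits. Trimethoprim-sulfamethoxazole is given as the trimethoprim component of a 1:19 mixture.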

CN(C)[C@@H]1C(O)=C(C(N)=O)C(=O)[C@@]2(O)C(O)=C3C(=O)c4c(O)cccc4[C@@](C)(O)[C@H]3C[C@@H]12 [Tetracycline]
minimum inhibitory concentration (isolate (source animal id): 8): > 8 µg/mL
minimum inhibitory concentration (isolate (source animal id): 13): > 8 µg/mL
minimum inhibitory concentration (isolate (source animal id): 18): > 8 µg/mL
minimum inhibitory concentration (isolate (source animal id): 21): > 8 µg/mL
minimum inhibitory concentration (isolate (source animal id): 25): 4 µg/mL (≈ 9 µM)
minimum inhibitory concentration (isolate (source animal id): 27): 8 µg/mL (≈ 18 µM)
minimum inhibitory concentration (isolate (source animal id): 28): 8 µg/mL (≈ 18 µM)
minimum inhibitory concentration (isolate (source animal id): 30): > 8 µg/mL
minimum inhibitory concentration (isolate (source animal id): 31): > 8 µg/mL
minimum inhibitory concentration (isolate (source animal id): 32): > 8 µg/mL
minimum inhibitory concentration (isolate (source animal id): 34): 8 µg/mL (≈ 18 µM)
minimum inhibitory concentration (isolate (source animal id): 36): 8 µg/mL (≈ 18 µM)
minimum inhibitory concentration (isolate (source animal id): 37): 8 µg/mL (≈ 18 µM)
minimum inhibitory concentration (isolate (source animal id): 40): > 8 µg/mL
minimum inhibitory concentration (isolate (source animal id): 41): 8 µg/mL (≈ 18 µM)
minimum inhibitory concentration (isolate (source animal id): 43): > 8 µg/mL
minimum inhibitory concentration (isolate (source animal id): 46): 8 µg/mL (≈ 18 µM)
minimum inhibitory concentration (isolate (source animal id): 49): 4 µg/mL (≈ 9 µM)
minimum inhibitory concentration (isolate (source animal id): 50): 8 µg/mL (≈ 18 µM)
minimum inhibitory concentration (isolate (source animal id): 51): 8 µg/mL (≈ 18 µM)
minimum inhibitory concentration (isolate (source animal id): 52): > 8 µg/mL
minimum inhibitory concentration (isolate (source animal id): 53): > 8 µg/mL
minimum inhibitory concentration (isolate (source animal id): 55): > 8 µg/mL
minimum inhibitory concentration (isolate (source animal id): 56): > 8 µg/mL
minimum inhibitory concentration (isolate (source animal id): 57): > 8 µg/mL
minimum inhibitory concentration (isolate (source animal id): 100): > 8 µg/mL
minimum inhibitory concentration (isolate (source animal id): 103): 4 µg/mL (≈ 9 µM)
minimum inhibitory concentration (isolate (source animal id): 107): 4 µg/mL (≈ 9 µM)
minimum inhibitory concentration (isolate (source animal id): 108): > 8 µg/mL
minimum inhibitory concentration (isolate (source animal id): 112): > 8 µg/mL
minimum inhibitory concentration (isolate (source animal id): 113): > 8 µg/mL
minimum inhibitory concentration (isolate (source animal id): 121): 8 µg/mL (≈ 18 µM)
minimum inhibitory concentration (isolate (source animal id): 122): 4 µg/mL (≈ 9 µM)
minimum inhibitory concentration (isolate (source animal id): 123): > 8 µg/mL
minimum inhibitory concentration (isolate (source animal id): 126): 4 µg/mL (≈ 9 µM)
minimum inhibitory concentration (isolate (source animal id): 133): > 8 µg/mL
minimum inhibitory concentration (isolate (source animal id): 135): > 8 µg/mL
minimum inhibitory concentration (isolate (source animal id): 138): 4 µg/mL (≈ 9 µM)
minimum inhibitory concentration (isolate (source animal id): 141): > 8 µg/mL
minimum inhibitory concentration (isolate (source animal id): 142): > 8 µg/mL
minimum inhibitory concentration (isolate (source animal id): 145): 4 µg/mL (≈ 9 µM)
minimum inhibitory concentration (isolate (source animal id): 149): ≤ 0.5 µg/mL
minimum inhibitory concentration (isolate (source animal id): 151): ≤ 0.5 µg/mL
minimum inhibitory concentration (isolate (source animal id): 152): 4 µg/mL (≈ 9 µM)
minimum inhibitory concentration (isolate (source animal id): 154): ≤ 0.5 µg/mL
minimum inhibitory concentration (isolate (source animal id): 159): 4 µg/mL (≈ 9 µM)
minimum inhibitory concentration (isolate (source animal id): 162): 4 µg/mL (≈ 9 µM)
minimum inhibitory concentration (isolate (source animal id): 170): 8 µg/mL (≈ 18 µM)
minimum inhibitory concentration (isolate (source animal id): 171): ≤ 0.5 µg/mL
minimum inhibitory concentration (isolate (source animal id): 172): 8 µg/mL (≈ 18 µM)
minimum inhibitory concentration (isolate (source animal id): 173): 8 µg/mL (≈ 18 µM)
minimum inhibitory concentration (isolate (source animal id): 179): 4 µg/mL (≈ 9 µM)
minimum inhibitory concentration (isolate (source animal id): 180): 4 µg/mL (≈ 9 µM)
minimum inhibitory concentration (isolate (source animal id): 183): 4 µg/mL (≈ 9 µM)
minimum inhibitory concentration (isolate (source animal id): 186): 4 µg/mL (≈ 9 µM)
minimum inhibitory concentration (isolate (source animal id): 187): 4 µg/mL (≈ 9 µM)
minimum inhibitory concentration (isolate (source animal id): 188): 4 µg/mL (≈ 9 µM)
minimum inhibitory concentration (isolate (source animal id): 190): ≤ 0.5 µg/mL
minimum inhibitory concentration (isolate (source animal id): 191): 8 µg/mL (≈ 18 µM)
minimum inhibitory concentration (isolate (source animal id): 192): ≤ 0.5 µg/mL
minimum inhibitory concentration (isolate (source animal id): 201): 8 µg/mL (≈ 18 µM)
minimum inhibitory concentration (isolate (source animal id): 202): 4 µg/mL (≈ 9 µM)
minimum inhibitory concentration (isolate (source animal id): 209): 8 µg/mL (≈ 18 µM)
minimum inhibitory concentration (isolate (source animal id): 211): ≤ 0.5 µg/mL
minimum inhibitory concentration (isolate (source animal id): 220): 8 µg/mL (≈ 18 µM)
minimum inhibitory concentration (isolate (source animal id): 221): 4 µg/mL (≈ 9 µM)
minimum inhibitory concentration (isolate (source animal id): 223): 4 µg/mL (≈ 9 µM)
minimum inhibitory concentration (isolate (source animal id): 233): 4 µg/mL (≈ 9 µM)
minimum inhibitory concentration (isolate (source animal id): 237): ≤ 0.5 µg/mL
minimum inhibitory concentration (isolate (source animal id): 241): 8 µg/mL (≈ 18 µM)
minimum inhibitory concentration (isolate (source animal id): 252): 4 µg/mL (≈ 9 µM)
minimum inhibitory concentration (isolate (source animal id): 253): > 8 µg/mL
minimum inhibitory concentration (isolate (source animal id): 259): 8 µg/mL (≈ 18 µM)
minimum inhibitory concentration (isolate (source animal id): 260): > 8 µg/mL
minimum inhibitory concentration (isolate (source animal id): 262): 4 µg/mL (≈ 9 µM)
minimum inhibitory concentration (isolate (source animal id): 282): 4 µg/mL (≈ 9 µM)
minimum inhibitory concentration (isolate (source animal id): 287): 8 µg/mL (≈ 18 µM)
minimum inhibitory concentration (isolate (source animal id): 288): ≤ 0.5 µg/mL
minimum inhibitory concentration (isolate (source animal id): 291): ≤ 0.5 µg/mL
minimum inhibitory concentration (isolate (source animal id): 293): 4 µg/mL (≈ 9 µM)
minimum inhibitory concentration (isolate (source animal id): 298): > 8 µg/mL
minimum inhibitory concentration (isolate (source animal id): 299): > 8 µg/mL
minimum inhibitory concentration (isolate (source animal id): 300): ≤ 0.5 µg/mL
minimum inhibitory concentration (isolate (source animal id): 302): > 8 µg/mL
minimum inhibitory concentration (isolate (source animal id): 304): > 8 µg/mL
minimum inhibitory concentration (isolate (source animal id): 306): ≤ 0.5 µg/mL
minimum inhibitory concentration (isolate (source animal id): 308): ≤ 0.5 µg/mL
minimum inhibitory concentration (isolate (source animal id): 309): ≤ 0.5 µg/mL
minimum inhibitory concentration (isolate (source animal id): 313): 4 µg/mL (≈ 9 µM)
minimum inhibitory concentration (isolate (source animal id): 318): 4 µg/mL (≈ 9 µM)
minimum inhibitory concentration (isolate (source animal id): 320): ≤ 0.5 µg/mL
minimum inhibitory concentration (isolate (source animal id): 321): 4 µg/mL (≈ 9 µM)
minimum inhibitory concentration (isolate (source animal id): 323): > 8 µg/mL
minimum inhibitory concentration (isolate (source animal id): 324): 8 µg/mL (≈ 18 µM)
minimum inhibitory concentration (isolate (source animal id): 326): 4 µg/mL (≈ 9 µM)
minimum inhibitory concentration (isolate (source animal id): 328): 8 µg/mL (≈ 18 µM)
minimum inhibitory concentration (isolate (source animal id): 329): 4 µg/mL (≈ 9 µM)
minimum inhibitory concentration (isolate (source animal id): 333): 4 µg/mL (≈ 9 µM)
minimum inhibitory concentration (isolate (source animal id): 335): 4 µg/mL (≈ 9 µM)
minimum inhibitory concentration (isolate (source animal id): 338): 4 µg/mL (≈ 9 µM)
